Data: patent US9801901B2, “Alginate oligomers for use in overcoming multidrug resistance in bacteria” (priority 2009, dated 2017)
Where two headings read alike, the source gives them in different places. Marks after values point to notes of the source that are not given here.

Experiments:
[1] = tested on: strains of E. coli displaying MDR phenotypes; experiment: MIC-assay, Mueller-Hinton broth with G-block alginate, 384-well, OD600 (Table 11); format: cell-based; conditions: Escherichia coli, Escherichia coli (5702, Wales, V11) MDR, read-out: MIC
Excerpt: (§1) Minimum inhibitory concentration (MICs) of different antibiotics for strains of E. coli and Providencia stuartii displaying MDR phenotypes in the presence of varying concentrations of OligoCF-5/20 (0-10%). (MIC values are expressed in μg ml^−1).

MDR Providencia stuartii = experiment: as above; format: cell-based; conditions: Providencia stuartii (IR57 India, V7) MDR
Excerpt: as §1

V22 6056 Acinetobacter = experiment: MIC assay, CAMHB with alginate oligomer, no visible growth; format: cell-based, Acinetobacter lwoffii; conditions: Table 5, V22 MDR Acin. lwoff
[2] = tested on: Pseudomonas aeruginosa (R22, PSA, V1); experiment: MIC-assay, Mueller-Hinton broth with G-block alginate, 384-well, OD600
[3] = tested on: Pseudomonas aeruginosa MDR 301 from Poland (V2); experiment: MIC assay, CAMHB with alginate oligomer, no visible growth; format: cell-based; conditions: Pseudomonas aeruginosa, Table 1, V2 MDR 301 PA, read-out: MIC
[4] = tested on: Acinetobacter baumannii (Egypt, V9); experiment: MIC-assay, Mueller-Hinton broth with G-block alginate, 384-well, OD600
Streptococcus oralis = experiment: MIC-assay, Mueller-Hinton broth with G-block alginate, 384-well, OD600 (Table 12); format: cell-based; conditions: Streptococcus oralis (5610, V17) MDR, read-out: MIC
Excerpt: (§2) Minimum inhibitory concentration (MICs) of different antibiotics for strains of Streptococcus oralis and Staphylococcus aureus (MRSA) displaying MDR phenotypes in the presence of varying concentrations of OligoCF-5/20 (0-10%). (MIC values are expressed in μg ml^−1).

[5] = tested on: Staphylococcus aureus (MRSA) U50; experiment: as above; format: cell-based; conditions: MRSA 1040s, U50 MDR, read-out: MIC
Excerpt: as §2

[6] = tested on: strains of Klebsiella pneumoniae displaying MDR phenotypes; experiment: MIC-assay, Mueller-Hinton broth with G-block alginate, 384-well, OD600 (Table 10); format: cell-based
Excerpt: Minimum inhibitory concentration (MICs) of different antibiotics for strains of Klebsiella pneumoniae displaying MDR phenotypes in the presence of varying concentrations of OligoCF-5/20 (0-10%). (MIC values are expressed in μg ml^−1).

[7] = tested on: Acinetobacter lwoffii (6056, V22); experiment: MIC-assay, Mueller-Hinton broth with G-block alginate, 384-well, OD600
V11 5702 (Wales) E. coli = experiment: MIC assay, CAMHB with alginate oligomer, no visible growth; format: cell-based; conditions: Table 5, V11 MDR E.coli
[8] = tested on: V10 (Egypt) Acinetobacter lwoffii; experiment: as above; format: cell-based; conditions: Table 5, V10 MDR Acin. lwoff
[9] = tested on: Acinetobacter lwoffii (Egypt, V10); experiment: MIC-assay, Mueller-Hinton broth with G-block alginate, 384-well, OD600
[10] = tested on: Pseudomonas aeruginosa (MDR 301, PSA, V2); experiment: as above; conditions: Pseudomonas aeruginosa, Table 8, V2
[11] = tested on: Acinetobacter baumannii MDR ACB from Libya (V4); experiment: MIC assay, CAMHB with alginate oligomer, no visible growth; format: cell-based; conditions: for MIC: Table 1, V4 ACB (Libya)
Excerpt: The study described in Example 1 was repeated with the following strains of bacteria and antibiotics as detailed in Tables 4, 5 and 6.
The study described in Example 1 was repeated with the following strains of Acinetobacter baumannii, antibiotics and M-block alginate oligomer in place of OligoG CF-5/20 as detailed in Table 7. The M-block oligomer is 100% M with a DPn of 15 to 18,

[12] = Table 9, G-block (OligoCF-5/20) 0%
[13] = Table 9, G-block (OligoCF-5/20) 2%
[14] = Table 9, G-block (OligoCF-5/20) 6%
[15] = Table 9, G-block (OligoCF-5/20) 10%

CC(C)(O/N=C(\C(=O)N[C@@H]1C(=O)N2C(C(=O)[O-])=C(C[n+]3ccccc3)CS[C@H]12)c1csc(N)n1)C(=O)O [Ceftazidime]
8 µg/mL: MIC ([3]; OligoCF-5/20 +6% G) | MIC (Streptococcus oralis; G-block (OligoCF-5/20) 0%) | MIC ([5]; G-block (OligoCF-5/20) 6%) | MIC ([6]; Klebsiella pneumoniae (5712, Wales, V12) MDR, G-block (OligoCF-5/20) 2%, read-out: MIC) | MIC [7, 12]
512 µg/mL: MIC ([11]; Acinetobacter baumannii, OligoCF-5/20 0G, read-out: MIC) | MIC ([11]; OligoCF-5/20 +6% G)
0.5 µg/mL: MIC ([10]; G-block (OligoCF-5/20) 0%)
> 1020 µg/mL: MIC (MDR Providencia stuartii; G-block (OligoCF-5/20) 0%) | MIC (MDR Providencia stuartii; G-block (OligoCF-5/20) 2%) | MIC (MDR Providencia stuartii; G-block (OligoCF-5/20) 6%) | MIC (MDR Providencia stuartii; G-block (OligoCF-5/20) 10%) | MIC ([6]; Klebsiella pneumoniae (IR25, India, V6) MDR, G-block (OligoCF-5/20) 0%, read-out: MIC) | MIC ([6]; Klebsiella pneumoniae (IR25, India, V6) MDR, G-block (OligoCF-5/20) 6%, read-out: MIC) | MIC ([6]; Klebsiella pneumoniae (K3, India, V8) MDR, G-block (OligoCF-5/20) 0%, read-out: MIC) | MIC ([6]; Klebsiella pneumoniae (K3, India, V8) MDR, G-block (OligoCF-5/20) 2%, read-out: MIC) | MIC ([6]; Klebsiella pneumoniae (K3, India, V8) MDR, G-block (OligoCF-5/20) 6%, read-out: MIC) | MIC ([6]; Klebsiella pneumoniae (K3, India, V8) MDR, G-block (OligoCF-5/20) 10%, read-out: MIC)
2 µg/mL: MIC ([5]; G-block (OligoCF-5/20) 10%) | MIC [7, 14] | MIC [7, 15] | MIC ([8]; Acinetobacter lwoffii, OligoCF-5/20 0G, read-out: MIC) | MIC ([8]; OligoCF-5/20 +2% G) | MIC [9, 12]
64^† μg/ml: MIC (V11 5702 (Wales) E. coli; OligoCF-5/20 +2% G) | MIC (V11 5702 (Wales) E. coli; OligoCF-5/20 +10% G)
128 µg/mL: MIC (V11 5702 (Wales) E. coli; Escherichia coli, OligoCF-5/20 0G, read-out: MIC)
1020 µg/mL: MIC ([6]; Klebsiella pneumoniae (IR25, India, V6) MDR, G-block (OligoCF-5/20) 2%) | MIC ([6]; Klebsiella pneumoniae (IR25, India, V6) MDR, G-block (OligoCF-5/20) 10%)
0.0312 µg/mL: MIC (Streptococcus oralis; G-block (OligoCF-5/20) 6%)
<0.5^† μg/ml: MIC ([8]; OligoCF-5/20 +6% G) | MIC ([8]; OligoCF-5/20 +10% G)
32 µg/mL: MIC ([3]; OligoCF-5/20 0G)
> 16 µg/mL: MIC ([1]; G-block (OligoCF-5/20) 0%) | MIC ([1]; G-block (OligoCF-5/20) 2%) | MIC ([1]; G-block (OligoCF-5/20) 6%) | MIC ([1]; G-block (OligoCF-5/20) 10%) | MIC ([2]; Table 8, G-block (OligoCF-5/20) 0%) | MIC ([2]; Table 8, G-block (OligoCF-5/20) 2%) | MIC ([2]; Table 8, G-block (OligoCF-5/20) 6%) | MIC ([2]; Table 8, G-block (OligoCF-5/20) 10%) | MIC [4, 12] | MIC [4, 13] | MIC [4, 14] | MIC [4, 15] | MIC ([5]; G-block (OligoCF-5/20) 0%) | MIC ([6]; Klebsiella pneumoniae (5712, Wales, V12) MDR, G-block (OligoCF-5/20) 0%, read-out: MIC) | MIC ([6]; Klebsiella pneumoniae (5712, Wales, V12) MDR, G-block (OligoCF-5/20) 6%, read-out: MIC) | MIC ([6]; Klebsiella pneumoniae (5712, Wales, V12) MDR, G-block (OligoCF-5/20) 10%, read-out: MIC)
32^† μg/ml: MIC (V11 5702 (Wales) E. coli; OligoCF-5/20 +6% G)
reduced: change of MIC in combination with azithromycin by alginate oligomer ([11]; Table 3, MDR Acinetobacter baumannii isolate)
4^† μg/ml: MIC (V22 6056 Acinetobacter; OligoCF-5/20 +6% G)
256 µg/mL: MIC ([11]; Acinetobacter baumannii, OligoCF-5/20 +10% G, read-out: MIC)
16 µg/mL: MIC (V22 6056 Acinetobacter; Acinetobacter, OligoCF-5/20 0G, read-out: MIC) | MIC (V22 6056 Acinetobacter; OligoCF-5/20 +2% G) | MIC ([3]; OligoCF-5/20 +2% G) | MIC ([5]; G-block (OligoCF-5/20) 2%)
more positive effect: effect in combination with alginate oligomers ([11]; Example 1, Acinetobacter baumannii isolate)
4 µg/mL: MIC ([3]; OligoCF-5/20 +10% G) | MIC (Streptococcus oralis; G-block (OligoCF-5/20) 2%) | MIC [7, 13]
2^† μg/ml: MIC (V22 6056 Acinetobacter; OligoCF-5/20 +10% G)
0.25 µg/mL: MIC [9, 14] | MIC [9, 15] | MIC ([10]; G-block (OligoCF-5/20) 6%)
1 µg/mL: MIC (Streptococcus oralis; G-block (OligoCF-5/20) 10%) | MIC [9, 13]
